Measurements published in US8716355B2, “Hydroxylated tolans and related compounds in the treatment of a cancer” (Kent State University, priority 2007, dated 2014).

Columns and labels:
[1] = test system: ovarian cancer; assay: Ovarian cancer patients (Example VIII D); type: in vivo, human; conditions: daily gelatin capsule 200 mg
Description: A study is carried out in a group of 40 women with ovarian cancer of various grades to determine the effect of treatment with compounds of KST-201, KST-213, KST-301 and KST-401. The administration protocol involves daily administration of a gelatin capsule containing 200 mg of active compound.

[2] = target: T1, human recombinant COX-2 (Homo sapiens, UniProt P35354); assay: COX Inhibitor Screening Assay, COX2; type: biochemical; conditions: doses of 10 to 200 μM tested
T1 construct: purchased Cayman Chemical 560131
Description: The Cayman COX Inhibitor Screening Assay includes both ovine COX-1 and human recombinant COX-2 enzymes in order to screen isozyme-specific inhibitors.

[3] = target: T2, ovine COX-1 (Ovis aries, UniProt P05979); assay: COX Inhibitor Screening Assay, COX1; type: biochemical
T2 construct: purchased Cayman Chemical 560131
Description: The indicated concentration of these agents were tested in the presence of COX1. COX activity was quantified by measuring the amount of final product PGF2α which competed with acetylcholinesterase (AChE)-linked PGs for binding to its antibody immobilized to the surface of microplate wells. Color was developed by adding an AChE substrate and was inversely related to the amount of PGF2α±SD of triplicate determinations.
The prostanoid product can be quantified via enzyme immunoassay (EIA) using a broadly specific antibody that binds to all the major prostaglandin compounds. COX assays from Cayman Chemical, Ann Arbor, Mich., are more accurate and reliable than assays based on peroxidase inhibition. The Cayman COX Inhibitor Screening Assay includes both ovine COX-1 and human recombinant COX-2 enzymes in order to screen isozyme-specific inhibitors. This assay is an excellent tool which can be used for general inhibitor screening.
COX was assayed by measuring production of PGF2, generated by stannous chloride (SnCl2) in the presence of PGH2 using a commercial kit from Cayman Chemical, (Ovine COX Inhibitor Screening Assay, Catalog #560131). […]
A 96-well plate coated with mouse anti-rabbit IgG was then used and various components were added—assay standards, nonspecific binding controls, maximum binding controls, and the inhibitor dilutions—along with the tracer and antiserum. The plate was incubated at room temperature for 18 hours, washed five times with wash buffer, developed with Ellman's Reagent and the colored reaction product was read on an automatic microplate reader at 410 nm. The IC50 for the respective COX enzyme was graphically determined from a three-point curve. […]
The intensity of color was inversely proportional to the amount of free prostaglandins quantitatively representing the COX enzymatic activity, under the influence of the test compounds.
As noted, COX activity was quantified by measuring the amount of final product PGF2-α which competed with AChE-linked PGs for binding to an antibody immobilized to microplates. […]

[4] = test system: prostate cancer; assay: Prostate cancer patients (Example VIII A); type: in vivo, human; conditions: daily 10 μg to 5 mg/Kg; no significant differences between the four groups
Description: A group of 40 men aged 55-75 suffering from prostate cancer receive a daily dosage of between 10 μg and 5 mg/Kg body weight of KST-201, KST-213, KST-301 or KST-401 (10 patients per compound). Examination of the patients by clinical, radiographic and histopathological tests show significant shrinkage in tumors, and signs of cell death in 38% of the patients; there are no significant differences between the four treatment groups.

[5] = test system: colon cancer; assay: Colon cancer patients (Example VIII E); type: in vivo, human
Description: Eight patients suffering from advanced colon cancer are treated daily for three weeks with an intravenous infusion of 2 g of the compounds KST-201, KST-213, KST-301 or KST-401 dissolved in saline. Two patients are assigned to each compound. The compounds are dissolved in sterile saline. […] Progression of the tumor is also arrested over the treatment period.
Another eight patients with terminal colon cancer are treated by daily bolus injections (intravenous or intramuscular) of 2 g of KST-201, KST-213, KST-301 or KST-401.

[6] = test system: rat-organ homogenates; conditions: cited from earlier work
[7] = test system: rat-organ homogenates; conditions: cited from earlier work; remark: listed apart in the source
[8] = test system: rat erythrocyte (RBC); conditions: cited from earlier work
[9] = test system: HSV-1
Description: FIG. 2. […] A 10% w/v solution of KST-301 in DMSO was applied topically to the epidermal infection site 3×/day for 5 days. Controls animals received the same volume of the DMSO vehicle at the same intervals. Lesions were scored as 0=no visible lesions, +1=papules around the infection site, +2=papules are ulcerated around the infection site with eschar formation, +3=ulcerated zosteriform spread along peripheral nerves to the flank of the animal, +4=ulcerated lesions open on the flank, and +5=death of the animal.
The lesions were scored as in the description for FIG. 2.

[10] = intravenous infusion 2 g daily for three weeks

T2 sequence (P05979 25-600): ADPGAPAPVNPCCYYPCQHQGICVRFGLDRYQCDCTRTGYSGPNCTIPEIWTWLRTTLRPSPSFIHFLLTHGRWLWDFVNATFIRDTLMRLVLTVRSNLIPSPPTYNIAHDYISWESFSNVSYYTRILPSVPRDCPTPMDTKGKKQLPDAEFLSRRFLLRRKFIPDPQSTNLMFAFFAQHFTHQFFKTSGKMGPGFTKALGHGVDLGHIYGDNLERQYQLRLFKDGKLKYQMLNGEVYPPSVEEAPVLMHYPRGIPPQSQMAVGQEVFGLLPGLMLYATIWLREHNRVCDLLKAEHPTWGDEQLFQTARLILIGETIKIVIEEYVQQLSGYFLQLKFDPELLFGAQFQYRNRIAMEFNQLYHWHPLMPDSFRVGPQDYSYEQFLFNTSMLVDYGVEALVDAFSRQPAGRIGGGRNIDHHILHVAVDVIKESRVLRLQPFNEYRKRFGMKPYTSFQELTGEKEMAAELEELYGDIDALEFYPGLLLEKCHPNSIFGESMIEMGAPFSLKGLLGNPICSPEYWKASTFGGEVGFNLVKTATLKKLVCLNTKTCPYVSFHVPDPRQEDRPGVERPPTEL
T1 sequence (P35354 18-604): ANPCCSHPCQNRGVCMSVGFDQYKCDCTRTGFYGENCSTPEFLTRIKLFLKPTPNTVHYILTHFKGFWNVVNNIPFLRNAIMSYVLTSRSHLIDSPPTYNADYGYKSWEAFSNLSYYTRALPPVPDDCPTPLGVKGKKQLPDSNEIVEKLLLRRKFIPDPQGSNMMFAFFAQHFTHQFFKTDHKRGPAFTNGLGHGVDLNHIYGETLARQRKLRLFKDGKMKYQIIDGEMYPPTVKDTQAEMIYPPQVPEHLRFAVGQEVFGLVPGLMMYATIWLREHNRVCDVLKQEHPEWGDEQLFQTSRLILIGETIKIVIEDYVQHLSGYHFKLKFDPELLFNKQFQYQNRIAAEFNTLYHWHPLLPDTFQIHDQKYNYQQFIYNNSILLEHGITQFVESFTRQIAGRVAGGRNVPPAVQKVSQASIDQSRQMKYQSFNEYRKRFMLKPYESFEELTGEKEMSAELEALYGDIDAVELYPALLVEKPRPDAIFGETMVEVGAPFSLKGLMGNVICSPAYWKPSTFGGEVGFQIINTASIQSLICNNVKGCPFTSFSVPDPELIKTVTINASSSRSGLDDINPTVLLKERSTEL

Compound: Oc1ccc(C#Cc2ccc(O)cc2)cc1 [KST-201, 4,4′-dihydroxytolan]
- Rate of production of ovarian cancer markers (Muc-1, Sp17) [1]: significant decrease
- Tumor growth during study period [1]: Tumors regress or show no further growth
- Inhibition of COX2 activity [2]: about 50%
- Inhibition of COX1 activity ([3]; doses of 10 to 200 μM tested): about 50%
- Patients with significant shrinkage in tumors, and signs of cell death [4]: 38%
- Dissemination of the tumors ([5]; daily bolus injections (intravenous or intramuscular) of 2 g): dissemination of the tumors is diminished
- Cancer marker carcinoembryonic antigen (CEA) [5, 10]: significant reduction
- Progression of the tumor [5, 10]: arrested

Compound: Oc1ccc(/C=C/c2cc(O)cc(O)c2)cc1 [Resveratrol, 3,5,4′-trihydroxy-trans-stilbene, reference compound]
- Inhibition (%) of Fe2+ − VitC induced level of MDA at 15 μM, In rat brain ([6]; rat brain): 83.20%
- Inhibition (%) of Fe2+ − VitC induced level of MDA at 15 μM, In rat kidney ([6]; rat kidney): 62.15%
- Inhibition (%) of Fe2+ − VitC induced level of MDA at 15 μM, In rat liver ([6]; rat liver): 50.36%
- Inhibition (%) of autooxidation MDA level at 7.5 μM, In rat brain ([7]; rat brain): 69.93%
- Inhibition (%) of autooxidation MDA level at 7.5 μM, In rat kidney ([7]; rat kidney): 40.37%
- Inhibition (%) of autooxidation MDA level at 7.5 μM, In rat liver ([7]; rat liver): 67.69%
- COX1 enzymatic activity ([3]; high end of 10 μM to 200 μM): complete inhibition
- COX1 enzymatic activity, % of initial activity ([3]; low end of 10 μM to 200 μM): 5%
- Inhibition (%) of RBC hemolysis induced by H2O2 at 4 μM [8]: 45.23%
- Severity of HSV-1 lesions ([9]; 10% w/v solution in DMSO, topical 3×/day for 5 days, hairless mice): significantly reduced the severity of the lesions
- Treated animals in which lesion formation was prevented ([9]; topical solution in DMSO): 57-67%
- Treated animals showing evidence of HSV infection ([9]; topical solution in DMSO, controls 83-100%): 43%
- Maximum (average) lesion score ([9]; topical solution in DMSO, scale 0 to +5, controls 3.8-4 by days 8 and 9): 0.8-1.2
